Experimental findings from ChEMBL document CHEMBL1201862, “PubChem BioAssay data set” (2004) are described below.

Values joined by “and” are separate entries in the source; they are usually repeats but may differ in a detail not shown here. Equal entries are not always repeated.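 Dose response: 5 concentrations. Exposure: 48 h. Format: 96-well plates. Endpoint: linear interpolation; highest concentration if not reached. GI50 = concentration required for 50% inhibition of growth.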 Active and inactive are the calls of the source. No stated cut-off is given here; in the data, active = GI50 up to about 1.1 µM and inactive = higher.

Among the test systems are COLO 205; HCT-116; HCT-15; HOP-62; HT-29; IGROV-1; LXFL 529; NCI-H226; NCI-H460; NCI-H522; OVCAR-5; SF-539; SNB-75; SR; TK-10; UACC-62.
Test in all cases: NCI-60 cell line screen, 48 h

For `Cc1ccc(S(=O)(=O)c2ccc(C)cc2[N+](=O)[O-])cc1`, the GI50 is > 100 µM (inactive) in the assay on COLO 205; 71.4 µM (inactive) with HCT-116; > 100 µM in the assay with HCT-15; > 100 µM (inactive) in the assay on HOP-62; > 100 µM (inactive) in the assay on HT-29; > 100 µM (inactive) with IGROV-1. Besides, the GI50 in the assay with LXFL 529 is 44.3 µM (inactive); in the assay on NCI-H226, > 100 µM (inactive); in the assay with NCI-H460 it was > 100 µM (inactive); in the assay with NCI-H522, 43.7 µM (inactive); in the assay on OVCAR-5, > 100 µM (inactive); in the assay on SF-539 it was > 100 µM (inactive). Besides, the GI50 in the assay with SNB-75 is > 100 µM (inactive); in the assay with SR, 79.4 µM (inactive); in the assay on TK-10, > 100 µM (inactive); with UACC-62, 92.3 µM (inactive).

For the molecule `Cc1ccc(C(=O)O/N=C2/CCCC/C2=C\c2ccccc2)cc1`, the GI50 was 95.3 µM (inactive) in the assay with COLO 205; 16.4 µM (inactive) in the assay with HCT-116; 32.4 µM with HCT-15; > 100 µM (inactive) in the assay on HOP-62; 43.5 µM (inactive) in the assay with HT-29; 42.9 µM (inactive) with IGROV-1. For the same molecule, the GI50 in the assay with LXFL 529 was 16.9 µM (inactive); in the assay with NCI-H226 it was > 100 µM (inactive); in the assay on NCI-H460 it was > 100 µM (inactive); in the assay on NCI-H522, 16.6 µM (inactive); in the assay with OVCAR-5 it was 81.1 µM (inactive); in the assay on SF-539, 45.1 µM (inactive). The GI50 in the assay on SNB-75 is 33.5 µM (inactive); in the assay with SR, > 100 µM (inactive); with TK-10, > 100 µM (inactive); in the assay on UACC-62, 41.5 µM (inactive).

Consider `Cc1cc(C)c(-n2c(-c3ccccc3)cs/c2=N\N=C2C=C(C(C)(C)C)C(=O)C(C(C)(C)C)=C2)c(C)c1`, for which the GI50 in the assay on COLO 205 is > 100 µM (inactive); in the assay with HCT-116 it was 64.6 µM (inactive); in the assay on HCT-15 it was > 100 µM; in the assay with HOP-62 it was > 100 µM (inactive); in the assay with HT-29 it was > 100 µM (inactive); with IGROV-1, > 100 µM (inactive). Also, the GI50 is 75.5 µM (inactive) with LXFL 529; > 100 µM (inactive) in the assay on NCI-H226; > 100 µM (inactive) in the assay with NCI-H460; 85.1 µM (inactive) with NCI-H522; > 100 µM (inactive) with OVCAR-5; > 100 µM (inactive) in the assay with SF-539. In addition, the GI50 in the assay with SNB-75 was 21.3 µM (inactive); with SR, > 100 µM (inactive); with TK-10, > 100 µM (inactive); with UACC-62, 60.3 µM (inactive).

With `O=C(/C=C/c1ccc(Cl)c(Cl)c1)c1ccc2ccccc2c1`, the GI50 with COLO 205 is 13.6 µM (inactive); in the assay on HCT-116, > 100 µM (inactive); with HCT-15 it was > 100 µM; in the assay with HOP-62, > 100 µM (inactive); in the assay with HT-29 it was > 100 µM (inactive); with IGROV-1, > 100 µM (inactive). Further, the GI50 in the assay on LXFL 529 was > 100 µM (inactive); in the assay on NCI-H226, 70.5 µM (inactive); with NCI-H460, 37.7 µM (inactive); in the assay on NCI-H522 it was 88.5 µM (inactive); in the assay on OVCAR-5, > 100 µM (inactive); in the assay on SF-539 it was > 100 µM (inactive). For the same molecule, the GI50 in the assay on SNB-75 was 52 µM (inactive); in the assay with SR, 47.9 µM (inactive); with TK-10, > 100 µM (inactive); in the assay on UACC-62 it was > 100 µM (inactive).

Turning to `COc1c(Cl)c(Cl)c(OC)c2c1C(=O)C=CC2=O`, the GI50 with COLO 205 is 16.2 µM (inactive); with HCT-116, 17.8 µM (inactive); in the assay with HCT-15 it was 35.6 µM; with HT-29, 29.9 µM (inactive); in the assay on IGROV-1, 24.7 µM (inactive); with LXFL 529 it was 15.8 µM (inactive). In addition, the GI50 in the assay on NCI-H226 was 33.5 µM (inactive); in the assay with NCI-H460 it was 37.8 µM (inactive); in the assay with NCI-H522 it was 17.6 µM (inactive); in the assay on OVCAR-5, 35.5 µM (inactive); in the assay on SF-539 it was 20 µM (inactive); in the assay with SNB-75, 21.4 µM (inactive). In addition, the GI50 in the assay with SR was 10.4 µM (inactive); in the assay on TK-10, 20.2 µM (inactive); in the assay with UACC-62 it was 15.6 µM (inactive).

`CC(C)C(=O)/C=C/c1ccc(Cl)c(Cl)c1`: the GI50 is 24.9 µM (inactive) in the assay on COLO 205; 3.69 µM (inactive) in the assay on HCT-116; 19.7 µM (inactive) in the assay with HT-29; 20 µM (inactive) with IGROV-1; 18.7 µM (inactive) in the assay with LXFL 529; 22.2 µM (inactive) in the assay with NCI-H460. Also, the GI50 is 13.4 µM (inactive) in the assay on NCI-H522; 21.7 µM (inactive) in the assay with OVCAR-5; 13.2 µM (inactive) with SF-539; > 10 µM (inactive) with SNB-75; 14.5 µM (inactive) in the assay with SR; 14.2 µM (inactive) with TK-10. The GI50 in the assay on UACC-62 is 17.3 µM (inactive).

As for `CC(SC(=S)N1CCOCC1)c1cc2oc(=O)n(C)c2cc1Cl` (stereo not given), the GI50 in the assay on COLO 205 is > 100 µM (inactive); in the assay on HCT-116 it was > 100 µM (inactive); with HCT-15 it was > 100 µM; in the assay on HOP-62, > 100 µM (inactive); with HT-29 it was > 100 µM (inactive); in the assay with IGROV-1, > 10 µM (inactive). Also, the GI50 with LXFL 529 was 57.4 µM (inactive); in the assay with NCI-H460, > 100 µM (inactive); with OVCAR-5 it was > 100 µM (inactive); in the assay on SF-539 it was 76 µM (inactive); in the assay with SNB-75, 76 µM (inactive); in the assay with SR it was 30.4 µM (inactive). Also, the GI50 with TK-10 and in the assay on UACC-62 was > 100 µM (inactive) each time.

Consider `Cc1cc(C)c([O-])c(-[n+]2c(-c3ccccc3)cc(-c3ccccc3)cc2-c2ccccc2)c1`, for which the GI50 with COLO 205 was 3.22 µM (inactive); in the assay with HCT-116, 1.63 µM (inactive); with HCT-15, 11.9 µM; with HOP-62, 10.1 µM (inactive); in the assay on HT-29, 2.98 µM (inactive); in the assay on IGROV-1 it was 4.04 µM (inactive). In addition, the GI50 with LXFL 529 was 2.35 µM (inactive); with NCI-H226 it was 10.1 µM (inactive); with NCI-H460, 4.48 µM (inactive); in the assay on OVCAR-5, 4.49 µM (inactive); in the assay on SF-539, 11.2 µM (inactive); in the assay with SNB-75, 6.18 µM (inactive). The GI50 in the assay with SR was 2.6 µM (inactive); with TK-10 it was 6.22 µM (inactive); in the assay on UACC-62, 3.34 µM (inactive).

As for `Cc1cc(C)c(C(=O)C(C)C(c2ccccc2)c2ccc(Cl)cc2)c(C)c1` (stereo not given), the GI50 is > 100 µM (inactive) in the assay on COLO 205; > 100 µM (inactive) and 56.1 µM (inactive) in the assay on HCT-116; > 100 µM and 51.5 µM in the assay on HCT-15; > 100 µM (inactive) in the assay with HOP-62; 34.4 µM (inactive) and 43.5 µM (inactive) with HT-29; > 100 µM (inactive) in the assay on IGROV-1. Also, the GI50 in the assay with LXFL 529 was 63.5 µM (inactive); with NCI-H226, > 100 µM (inactive); in the assay on NCI-H460, > 100 µM (inactive); in the assay on SF-539, > 100 µM (inactive); with SNB-75, > 100 µM (inactive); in the assay on SR, 76.2 µM (inactive) and 64.6 µM (inactive). Besides, the GI50 in the assay on TK-10 and in the assay on UACC-62 was > 100 µM (inactive) throughout.

In the case of `CN(CCN1C(=O)c2cc([N+](=O)[O-])cc3cc([N+](=O)[O-])cc(c23)C1=O)CCN1C(=O)c2cc([N+](=O)[O-])cc3cc([N+](=O)[O-])cc(c23)C1=O`, the GI50 in the assay on COLO 205 was 0.393 µM (active); with HCT-116 it was 0.153 µM (active); in the assay with HCT-15, 0.482 µM; with HOP-62 it was 2.65 µM (inactive); in the assay with HT-29, 0.272 µM (active); in the assay on IGROV-1, 0.347 µM (active). Also, the GI50 is 0.211 µM (active) with LXFL 529; 0.778 µM (active) in the assay with NCI-H226; 0.387 µM (active) with NCI-H460; 0.421 µM (active) with NCI-H522; 1.69 µM (inactive) in the assay with OVCAR-5; 0.399 µM (active) with SF-539. The figures for the GI50 with SNB-75, in the assay with TK-10 and with UACC-62 were 0.695 µM (active), 8.73 µM (inactive) and 0.811 µM (active), respectively.

As to `CN(C)C=C1C(=O)N(C)C(=O)N(C)C1=O`, the GI50 was > 100 µM (inactive) with HCT-116; > 100 µM in the assay with HCT-15; > 100 µM (inactive) in the assay with HT-29; > 100 µM (inactive) in the assay with LXFL 529; > 100 µM (inactive) with NCI-H226; > 100 µM (inactive) with NCI-H460. Also, the GI50 in the assay on OVCAR-5, in the assay on SF-539, in the assay with SNB-75, with SR, in the assay with TK-10 and in the assay on UACC-62 was > 100 µM (inactive) each time.

For `O=C(CC(=O)n1nc(-c2ccccc2)c(/N=N/c2ccc([N+](=O)[O-])cc2)c1-c1ccccc1)Nc1ccc(Cl)cc1`, the GI50 is 18 µM (inactive) in the assay on COLO 205; 12.9 µM (inactive) in the assay with HCT-116; 14.5 µM (inactive) in the assay with HOP-62; 12.5 µM (inactive) in the assay on HT-29; 36.4 µM (inactive) with IGROV-1; 8.73 µM (inactive) with LXFL 529. Moreover, the GI50 with NCI-H226 was 22.4 µM (inactive); in the assay with NCI-H460, 30.1 µM (inactive); in the assay on NCI-H522, 23.2 µM (inactive); in the assay with OVCAR-5 it was 26.5 µM (inactive); with SF-539, 21.5 µM (inactive); with SNB-75, 29 µM (inactive). The GI50 in the assay on SR is 22.4 µM (inactive); in the assay with TK-10, 22.6 µM (inactive); in the assay with UACC-62 it was 2.56 µM (inactive).

As to `CN(C)/N=N/c1ccccc1`, the GI50 with COLO 205 was > 100 µM (inactive); in the assay on HCT-116 it was > 100 µM (inactive); in the assay on HCT-15, 16.7 µM; in the assay on HT-29, > 100 µM (inactive); with IGROV-1, 34.3 µM (inactive); with LXFL 529, > 100 µM (inactive). Besides, the GI50 in the assay on NCI-H226 is > 100 µM (inactive); in the assay on NCI-H460, 98.9 µM (inactive); in the assay on NCI-H522, 21.7 µM (inactive); with SF-539, > 100 µM (inactive); in the assay with SNB-75 it was > 100 µM (inactive); in the assay with SR, > 100 µM (inactive). Moreover, in the assay with TK-10, the GI50 is > 100 µM (inactive).
